From US20230339937A1, “CONDENSED RING COMPOUNDS THAT INHIBIT H-PGDS” (SATO PHARMACEUTICAL CO., LTD., priority 2020, published 2023)

Each compound was assayed against T1, Recombinant human H-PGDS (Homo sapiens, UniProt O60760) (assay: H-PGDS inhibitory activity (prostaglandin D2 production from prostaglandin H2, measured by LC-MS/MS)). Conditions: recombinant human H-PGDS 1.0 nM expressed in E. coli; prostaglandin H2 25 μM; preincubated 15 minutes on ice, reacted on ice for 1 minute; concentration that inhibits prostaglandin D2 production by 50%.
T1 construct: made in house; host or cells: E. coli
T1 sequence (O60760 whole entry): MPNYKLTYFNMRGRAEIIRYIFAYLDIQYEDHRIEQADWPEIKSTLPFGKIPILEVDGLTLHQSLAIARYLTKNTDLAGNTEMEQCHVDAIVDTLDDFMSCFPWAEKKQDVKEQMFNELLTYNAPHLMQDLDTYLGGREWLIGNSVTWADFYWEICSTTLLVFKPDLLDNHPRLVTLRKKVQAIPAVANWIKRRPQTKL
Format: biochemical
Procedure, shortened: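 Recombinant human H-PGDS (E. coli-expressed, 1.0 nM final) preincubated with compound 15 min on ice in 20 mM Tris-HCl pH 8.0, 2 mM MgCl2, 2 mM GSH, 0.5 mg/mL γ-globulin. Reaction with 25 µM PGH2 run 1 min on ice, stopped with FeCl2/citric acid, PGD2 quantified by LC-MS/MS. Activity expressed as % of DMSO control after subtracting non-enzymatic PGD2.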

Compound	IC50 [nM]
CC(=O)[C@@H]1CC[C@@H](NC(=O)c2ccc(-c3nccc4occc34)cc2)CO1 [Example 213, N-[(3R,6S)-6-acetyltetrahydro-2 H-pyran-3-yl]-4-(furo[3,2-c]pyridin-4-yl)benzamide]	4.3
CC(C)(O)[C@H]1CC[C@H](NC(=O)c2ccc(-c3nc(F)cc4occc34)cc2)CC1 [Example 316, 4-(6-fluorofuro[3,2-c]pyridin-4-yl)-N-[trans-4-(2-hydroxypropan-2-yl)cyclohexyl]benzamide]	1.5
O=C(N[C@H]1CC[C@](O)(C2CC2)CC1)c1ccc(-c2nccc3occc23)cc1 [Example 291, N-(cis-4-cyclopropyl-4-hydroxycyclohexyl)-4-(furo[3,2-c]pyridin-4-yl)benzamide]	2.4
CO[C@@H]1CN(c2ncc(CO)cn2)C[C@H]1NC(=O)c1ccc(-c2nccc3occc23)cc1 [Example 205, 4-(furo[3,2-c]pyridin-4-yl)-N-((3R,4R)-1-[5-(hydroxymethyl)pyrimidin-2-yl]-4-methoxypyrrolidin-3-yl)benzamide]	5.6
N#Cc1ccc(CNC(=O)c2ccc(-c3nccc4occc34)cc2)cc1 [Example 74, N-(4-cyanobenzyl)-4-(furo[3,2-c]pyridin-4-yl)benzamide]	6.3
CN(C)c1ccnc(N2CCC(NC(=O)c3ccc(-c4nccc5occc45)cc3)CC2)n1 [Example 161, N-{1-[4-(dimethylamino)pyrimidin-2-yl]piperidin-4-yl}-4-(furo[3,2-c]pyridin-4-yl)benzamide]	2
CC1(C)CC(O)CC(NC(=O)c2ccc(-c3nccc4occc34)cc2)C1 (stereo not drawn) [Example 280, 4-(furo[3,2-c]pyridin-4-yl)-N-(5-hydroxy-3,3-dimethylcyclohexyl)benzamide]	2.2
O=C(NCc1ccncc1)c1ccc(-c2nccc3[nH]ccc23)cc1 [Example 11, N-(pyridin-4-ylmethyl)-4-(1H-pyrrolo[3,2-c]pyridin-4-yl)benzamide]	1.7
O=C(N[C@H]1C[C@H](O)C1)c1ccc(-c2nccc3occc23)cc1 [Example 270, 4-(furo[3,2-c]pyridin-4-yl)-N-(trans-3-hydroxycyclobutyl)benzamide]	6.4
O=C(NC1CCCCC1)c1ccc(-c2nccc3occc23)cc1 [Example 88, N-cyclohexyl-4-(furo[3,2-c]pyridin-4-yl)benzamide]	4.2
CC(C)(O)[C@H]1CC[C@H](NC(=O)c2ccc(-c3nccc4occc34)c(Cl)c2)CC1 [Example 131, 3-chloro-4-(furo[3,2-c]pyridin-4-yl)-N-[trans-4-(2-hydroxypropan-2-yl)cyclohexyl]benzamide]	26
O=C(N[C@H]1CC[C@H](C(O)C(F)(F)F)CC1)c1ccc(-c2nccc3occc23)cc1 (stereo partly drawn) [Example 309, 4-(furo[3,2-c]pyridin-4-yl)-N-[trans-4-(2,2,2-trifluoro-1-hydroxyethyl)cyclohexyl]benzamide]	1.9
CC(=O)Nc1cnc(N2CCC(NC(=O)c3ccc(-c4nccc5occc45)cc3)CC2)nc1 [Example 189, N-[1-(5-acetamidopyrimidin-2-yl)piperidin-4-yl]-4-(furo[3,2-c]pyridin-4-yl)benzamide]	2.3
COc1cnc(N2CCC(NC(=O)c3ccc(-c4nccc5occc45)cc3)CC2)nc1 [Example 168, 4-(furo[3,2-c]pyridin-4-yl)-N-[1-(5-methoxypyrimidin-2-yl)piperidin-4-yl]benzamide]	1.7
O=C(NC1CCN(c2ccncn2)CC1)c1ccc(-c2nccc3occc23)cc1 [Example 171, 4-(furo[3,2-c]pyridin-4-yl)-N-[1-(pyrimidin-4-yl)piperidin-4-yl]benzamide]	1.9
COCCN[C@H]1CC[C@H](NC(=O)c2ccc(-c3nccc4occc34)cc2)CC1 [Example 301, 4-(furo[3,2-c]pyridin-4-yl)-N-{trans-4-[(2-methoxyethyl)amino]cyclohexyl}benzamide]	11
Cc1cc2occc2c(-c2ccc(C(=O)N[C@H]3CC[C@H](C(C)(C)O)CC3)cc2F)n1 [Example 321, 3-fluoro-N-[trans-4-(2-hydroxypropan-2-yl)cyclohexyl]-4-(6-methylfuro[3,2-c]pyridin-4-yl)benzamide]	5.5
O=C(N[C@@H]1CCN(c2ncccn2)C1)c1ccc(-c2nccc3occc23)cc1 [Example 192, (R)-4-(furo[3,2-c]pyridin-4-yl)-N-[1-(pyrimidin-2-yl)pyrrolidin-3-yl]benzamide]	7.7
Cc1cc(S(N)(=O)=O)ccc1NC(=O)c1ccc(-c2nccc3occc23)cc1 [Example 117, 4-(furo[3,2-c]pyridin-4-yl)-N-(2-methyl-4-sulfamoylphenyl) benzamide]	12
O=C(N[C@H]1CC[C@H](N2CCC(F)(F)C2)CC1)c1ccc(-c2nccc3occc23)cc1 [Example 306, N-[trans-4-(3,3-difluoropyrrolidin-1-yl)cyclohexyl]-4-(furo[3,2-c]pyridin-4-yl)benzamide]	1.8
O=C(N[C@@H]1CN(c2ncc(CO)cn2)C[C@@H]1O)c1ccc(-c2nccc3occc23)cc1 [Example 208, 4-(furo[3,2-c]pyridin-4-yl)-N-((3R,4S)-4-hydroxy-1-[5-(hydroxymethyl)pyrimidin-2-yl]pyrrolidin-3-yl)benzamide]	14
O=C(NC1CCN(c2nccc(N3CCC3)n2)CC1)c1ccc(-c2nccc3occc23)cc1 [Example 178, N-{1-[4-(azetidin-1-yl)pyrimidin-2-yl]piperidin-4-yl}-4-(furo[3,2-c]pyridin-4-yl)benzamide]	1.9
CO[C@H]1CCC[C@@H](NC(=O)c2ccc(-c3nccc4occc34)cc2)C1 (relative stereo) [Example 275, 4-(furo[3,2-c]pyridin-4-yl)-N-(cis-3-methoxycyclohexyl)benzamide]	1.8
CC(C)(O)[C@H]1CC[C@H](NC(=O)c2ccc(-c3nccc4sccc34)cc2)CC1 [Example 63, N-[trans-4-(2-hydroxypropan-2-yl)cyclohexyl]-4-(thieno[3,2-c]pyridin-4-yl)benzamide]	1.5
O=C(N[C@H]1CC[C@@](O)(C(F)(F)F)CC1)c1ccc(-c2nccc3occc23)cc1 [Example 264, 4-(furo[3,2-c]pyridin-4-yl)-N-[trans-4-hydroxy-4-(trifluoromethyl)cyclohexyl]benzamide]	3.5
CC(=O)N1CCC(NC(=O)c2ccc(-c3nccc4occc34)cc2)CC1 [Example 186, N-(1-acetylpiperidin-4-yl)-4-(furo[3,2-c]pyridin-4-yl)benzamide]	2.3

The next compounds have a lower IC50 than those just listed; values first:

IC50 [nM]	Compound
1.3	O=C(N[C@H]1CC[C@H](NCC(F)F)CC1)c1ccc(-c2nccc3occc23)c(F)c1 [Example 326, N-{trans-4-[(2,2-difluoroethyl)amino]cyclohexyl}-3-fluoro-4-(furo[3,2-c]pyridin-4-yl)benzamide]
1.3	O=C(NCc1cnn(CC(F)(F)F)c1)c1ccc(-c2nccc3[nH]ccc23)cc1 [Example 43, 4-(1H-pyrrolo[3,2-c]pyridin-4-yl)-N-{[1-(2,2,2-trifluoroethyl)-1H-pyrazol-4-yl]methyl} benzamide]
1.2	N#Cc1cnc(N2CC[C@H](NC(=O)c3ccc(-c4nccc5occc45)cc3)C2)nc1 [Example 201, (S)—N-[1-(5-cyanopyrimidin-2-yl)pyrrolidin-3-yl]-4-(furo[3,2-c]pyridin-4-yl)benzamide]
1.2	COC(=O)c1ccnc(N2CCC(NC(=O)c3ccc(-c4nccc5occc45)cc3)CC2)n1 [Example 167, Methyl 2-{4-[4-(furo[3,2-c]pyridin-4-yl)benzamide]piperidin-1-yl}pyrimidine-4-carboxylate]
1.2	Cn1cc(N2CCC(NC(=O)c3ccc(-c4nccc5occc45)cc3)CC2)cn1 [Example 252, 4-(furo[3,2-c]pyridin-4-yl)-N-[1-(1-methyl-1H-pyrazol-4-yl)piperidin-4-yl]benzamide]
1.2	O=C(N[C@H]1CCN(c2cccnn2)C1)c1ccc(-c2nccc3occc23)cc1 [Example 230, (S)-4-(furo[3,2-c]pyridin-4-yl)-N-[1-(pyridazin-3-yl)pyrrolidin-3-yl]benzamide]
1.1	O=C(NC1CCCC1)c1ccc(-c2nccc3[nH]ccc23)cc1 [Example 12, N-cyclopenthyl-4-(1H-pyrrolo[3,2-c]pyridin-4-yl)benzamide]
1	N#Cc1cc(N2CCC(NC(=O)c3ccc(-c4nccc5occc45)cc3)CC2)ccn1 [Example 166, N-[1-(2-cyanopyridin-4-yl)piperidin-4-yl]-4-(furo[3,2-c]pyridin-4-yl)benzamide]
1	O=C(NCc1ccccc1)c1ccc(-c2nccc3[nH]ccc23)cc1 [Example 8, N-benzyl-4-(1H-pyrrolo[3,2-c]pyridin-4-yl)benzamide]
0.98	CCCn1ccc(CNC(=O)c2ccc(-c3nccc4[nH]ccc34)cc2)n1 [Example 44, N-[(1-propyl-1H-pyrazol-3-yl)methyl]-4-(1H-pyrrolo[3,2-c]pyridin-4-yl)benzamide]
0.93	O=C(N[C@H]1CC[C@H](OCC2(O)CC2)CC1)c1ccc(-c2nccc3occc23)cc1 [Example 258, 4-(furo[3,2-c]pyridin-4-yl)-N-{trans-4-[(1-hydroxycyclopropyl)methoxy]cyclohexyl}benzamide]
0.85	O=C(NCCCCCCO)c1ccc(-c2nccc3[nH]ccc23)cc1 [Example 17, N-(6-hydroxyhexyl)-4-(1H-pyrrolo[3,2-c]pyridin-4-yl)benzamide]
0.74	O=C(N[C@H]1CCN(c2ncccn2)C1)c1ccc(-c2nccc3occc23)c(F)c1 [Example 328, (S)-3-fluoro-4-(furo[3,2-c]pyridin-4-yl)-N-[1-(pyrimidin-2-yl)pyrrolidin-3-yl]benzamide]
